Test results taken from PMC8198214, “Synthesis and Biological Evaluation of Spirocyclic Chromane Derivatives as a Potential Treatment of Prostate Cancer” (Molecules, 2021).
Where two headings read alike, the source gives them in different places.

Assays:
22Rv1 cells = test: 22Rv1 cell viability (CCK-8) antiproliferation assay; type: cell-based, human; details: for IC50: Homo sapiens, Table 2, 22Rv1 cells, means of two independent experiments (n = 2)
Experimental: The 22Rv1 prostate cancer cell line in this study was purchased from KeyGEN Biotech Co. Ltd. (Nanjing, Jiangsu, China ). The cells were cultured in RPMI 1640 medium and maintained at 37 °C in a 5% CO2 incubator. For the cell viability assay, the cell slurry was diluted to required volume at a density of 80,000 cells/mL. Then, 100 μL the cell slurry was seeded in each well of the 96-well plate. The cells were incubated for 72 h at 37 °C, 5% CO2 under humidified condition. The reference and test compounds solution (200×) were prepared with DMSO and were diluted from 200× to 1× with culture medium (RPMI 1640 medium without phenol red and containing 10% fetal calf serum, penicillin (100U/mL), streptomycin (100 μg/mL) and 0.1 nM DHT). The previous culture medium was removed and 200 μL/well of the compound solution (1×) was added to assay plate (final conc: 1×). Then the cells were incubated at 37 °C, 5% CO2 under humidified conditions. 5 Days later, the CCK-8 assay reagent was equilibrated at room temperature for 30 min prior to use. CCK-8 was mixed with fresh medium at a ratio of 1:10 and 100 μL of the diluted CCK8 reagent was added to each well and the plates were incubated for 4.5 h at 37 °C. Finally, absorbance value (OD value) was read on plate reader. GraphPad Prism v5.0 software was used to process data for IC50.

[1] = Pharmacokinetics in male Balb/C mice (IV and PO); type: in vivo; details: mouse, plasma; for clearance: n = 3, read-out: CL (clearance) (converted); for Vd: n = 3, read-out: V ss (0–24 h) (volume of distribution at steady state); for bioavailability: PO. 10 mg/kg vs IV. 1 mg/kg, n = 3, read-out: F (oral bioavailability); for Cmax: n = 3, Table 3, read-out: Cmax (maximum concentration observed)
Experimental: Pharmacokinetic experiments of test compounds were performed in male Balb/C mice similarly to our previous work. The mice were randomly assigned to two groups and were administrated the test compound orally and intravenously, respectively. The test compounds were prepared into 0.5 mg/mL oral solution with 10%PG, 10% ethanol, 10% solutol and 70% normal saline, or 0.1 mg/mL injection solution with 2% PG, 2% ethanol, 2% solutol and 94% normal saline. After intravenous or oral administration, blood was collected from the orbital venous plexus into heparinized EP tube (0.6 mL) at 5, 15, 30 min, 1, 2, 6, 10, and 24 h, temporarily placed on crushed ice. Certain processing was performed on blood samples and testing samples were sent to LC-MS/MS for analysis.

[2] = IV. 1 mg/kg, n = 3, read-out: AUC(0–24h)
[3] = IV. 1 mg/kg, n = 3, read-out: T1/2 (half-life) (converted)
[4] = PO. 10 mg/kg, n = 3, Table 3, read-out: AUC (0–24 h)
[5] = PO. 10 mg/kg, n = 3, Table 3, read-out: T1/2 (converted)

With `CNC(=O)Cn1cc(-c2ccc3c(c2)CCC32OC(=O)N(CC(=O)N(Cc3ccc(F)cc3)[C@H]3CCc4cccnc43)C2=O)cn1` (stereo partly drawn) [B8, N-((S)-6,7-Dihydro-5H-cyclopenta[b]pyridin-7-yl)-N-(4-fluorobenzyl)-2-(5-(1-(2-(methylamino)-2-oxoethyl)-1H-pyrazol-4-yl)-2′,4′-dioxo-2,3-dihydrospiro[indene-1,5′-oxazolidin]-3′-yl)acetamide] the IC50 (22Rv1 cells) was 0.153 µM, the AUC(0-t) [1, 2] was 0.767 ± 0.0712 µg·h/mL and the clearance ([1]; IV. 1 mg/kg) was 1.1 L/h/kg. It also gave a half-life [1, 3] of 17 ± 4.9 h, a Vd ([1]; IV. 1 mg/kg) of 13.2 ± 4.2 L/kg and a bioavailability [1] of 21.6 ± 3.8%. It also gave an AUC(0-t) [1, 4] of 1.66 ± 0.294 µg·h/mL, a Cmax ([1]; PO. 10 mg/kg) of 0.878 ± 0.0943 µg/mL and a half-life [1, 5] of 23.9 ± 3.6 h.

With `CNC(=O)Cn1cc(-c2ccc3c(c2)CCC32OC(=O)N(CC(=O)N(Cc3ccc(F)cc3)[C@H]3CCOc4ccccc43)C2=O)cn1` (stereo partly drawn) [B16, N-((S)-chroman-4-yl)-N-(4-fluorobenzyl)-2-(5-(1-(2-(methylamino)-2-oxoethyl)-1H-pyrazol-4-yl)-2′,4′-dioxo-2,3-dihydrospiro[indene-1,5′-oxazolidin]-3′-yl) acetamide] the “fold more potency than A-485” value (22Rv1 cells; 22Rv1 cell antiproliferation) was 2 fold, the IC50 (22Rv1 cells) was 0.096 µM and the AUC(0-t) [1, 2] was 0.536 ± 0.0181 µg·h/mL. The clearance ([1]; IV. 1 mg/kg) was 1.8 L/h/kg, the half-life [1, 3] was 0.5 h and the Vd ([1]; IV. 1 mg/kg) was 1 ± 0.1 L/kg. The bioavailability [1] was 33.2 ± 3%, the AUC(0-t) [1, 4] was 1.78 ± 0.158 µg·h/mL and the Cmax ([1]; PO. 10 mg/kg) was 0.759 ± 0.0765 µg/mL. It also gave a half-life [1, 5] of 1.6 ± 0.3 h.
